Measurements reported in patent US10597388B2, “Pyridazinone herbicides” (FMC CORPORATION, priority 2014, dated 2020).

Key:
Assay in all cases: Test E greenhouse herbicide test, pre- and postemergence
Type in all cases: in vivo
[1] = test system: goosegrass (Eleusine indica); conditions: Preemergence
How it was run: (§1)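 Seeds were sown in silt loam and sprayed preemergence with compound in a non-phytotoxic solvent mix containing surfactant; for postemergence, plants at 2 to 18 cm (1- to 4-leaf stage) in peat-based potting medium were sprayed with the same formulation. After 14 to 21 d in a greenhouse, injury was rated visually against controls (0–100).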

[2] = test system: lambsquarters (Chenopodium album); conditions: Preemergence
How it was run: as §1

[3] = test system: crabgrass, Brazilian (Brazilian crabgrass, Digitaria horizontalis)
How it was run: as §1

[4] = test system: beggarticks (hairy beggarticks, Bidens pilosa)
How it was run: as §1

[5] = test system: waterhemp (common waterhemp, Amaranthus rudis)
How it was run: as §1

[6] = test system: field bindweed (Convolvulus arvensis)
How it was run: as §1

[7] = test system: surinam grass (Brachiaria decumbens); conditions: Preemergence
How it was run: as §1

[8] = test system: ragweed (common ragweed, Ambrosia elatior)
How it was run: as §1

[9] = test system: nutsedge, yellow (yellow nutsedge, Cyperus esculentus); conditions: Preemergence
How it was run: as §1

[10] = test system: barnyardgrass (Echinochloa crus-galli)
How it was run: as §1

corn (Zea mays) = test system: corn (Zea mays)
How it was run: as §1

[11] = test system: sandbur (southem sandbur, Cenchrus echinatus)
How it was run: as §1

[12] = test system: panicum, fall (fall panicum, Panicum dichotomiflorum)
How it was run: as §1

[13] = 62 g ai/ha, scale 0 to 100 (0 no effect, 100 complete control)
[14] = 31 g ai/ha, scale 0 to 100, 0 no effect, 100 complete control
[15] = 125 g ai/ha, visual, scale 0 no effect to 100 complete control
[16] = 250 g ai/ha, visual, scale 0 no effect to 100 complete control
[17] = 62 g ai/ha, Postemergence, scale 0 to 100 (0 no effect, 100 complete control)
[18] = 62 g ai/ha, Preemergence, scale 0 to 100 (0 no effect, 100 complete control)
[19] = 125 g ai/ha, Postemergence, scale 0 to 100 (0 no effect, 100 complete control)
[20] = 250 g ai/ha, Postemergence, scale 0 to 100 (0 no effect, 100 complete control)
[21] = Postemergence, 31 g ai/ha, visual, scale 0 no effect to 100 complete control
[22] = Preemergence, 31 g ai/ha, scale 0 to 100, 0 no effect, 100 complete control
[23] = Preemergence, 125 g ai/ha, visual, scale 0 no effect to 100 complete control
[24] = Preemergence, 250 g ai/ha, visual, scale 0 no effect to 100 complete control
[25] = 125 g ai/ha, Preemergence, scale 0 to 100 (0 no effect, 100 complete control)
[26] = 125 g ai/ha, scale 0 to 100 (0 no effect, 100 complete control)

SMILES: Cc1cc2ccccc2c(-c2c(O)c(C)nn(C)c2=O)c1C [Compound 34]
- Plant response rating, Goosegrass [1, 13]: 5
- Plant response rating, Goosegrass [1, 14]: 5
- Plant response rating, Goosegrass [1, 15]: 10
- Plant response rating, Goosegrass [1, 16]: 10
- Plant response rating, Lambsquarters [2, 13]: 100
- Plant response rating, Lambsquarters [2, 14]: 10
- Plant response rating, Lambsquarters [2, 15]: 100
- Plant response rating, Lambsquarters [2, 16]: 98
- Plant response rating, Crabgrass, Brazil [3, 17]: 40
- Plant response rating, Crabgrass, Brazil [3, 18]: 10
- Plant response rating, Crabgrass, Brazil [3, 19]: 50
- Plant response rating, Crabgrass, Brazil [3, 20]: 50
- Plant response rating, Crabgrass, Brazil [3, 21]: 40
- Plant response rating, Crabgrass, Brazil [3, 22]: 0
- Plant response rating, Crabgrass, Brazil [3, 23]: 80
- Plant response rating, Crabgrass, Brazil [3, 24]: 80
- Plant response rating, Beggarticks [4, 17]: 100
- Plant response rating, Beggarticks [4, 18]: 100
- Plant response rating, Beggarticks [4, 19]: 98
- Plant response rating, Beggarticks [4, 20]: 100
- Plant response rating, Beggarticks [4, 21]: 90
- Plant response rating, Beggarticks [4, 22]: 90
- Plant response rating, Beggarticks [4, 23]: 100
- Plant response rating, Beggarticks [4, 24]: 100
- Plant response rating, Waterhemp [5, 17]: 85
- Plant response rating, Waterhemp [5, 18]: 100
- Plant response rating, Waterhemp [5, 19]: 85
- Plant response rating, Waterhemp [5, 25]: 100
- Plant response rating, Waterhemp [5, 20]: 90
- Plant response rating, Waterhemp [5, 21]: 70
- Plant response rating, Waterhemp [5, 22]: 100
- Plant response rating, Waterhemp [5, 24]: 100
- Plant response rating, Field Bindweed [6, 17]: 80
- Plant response rating, Field Bindweed [6, 18]: 50
- Plant response rating, Field Bindweed [6, 19]: 80
- Plant response rating, Field Bindweed [6, 20]: 95
- Plant response rating, Field Bindweed [6, 21]: 70
- Plant response rating, Field Bindweed [6, 22]: 5
- Plant response rating, Field Bindweed [6, 23]: 40
- Plant response rating, Field Bindweed [6, 24]: 60
- Plant response rating, Surinam Grass [7, 13]: 75
- Plant response rating, Surinam Grass [7, 26]: 95
- Plant response rating, Surinam Grass [7, 14]: 5
- Plant response rating, Surinam Grass [7, 16]: 80
- Plant response rating, Ragweed [8, 17]: 85
- Plant response rating, Ragweed [8, 18]: 75
- Plant response rating, Ragweed [8, 19]: 90
- Plant response rating, Ragweed [8, 25]: 100
- Plant response rating, Ragweed [8, 20]: 100
- Plant response rating, Ragweed [8, 21]: 90
- Plant response rating, Ragweed [8, 22]: 70
- Plant response rating, Ragweed [8, 24]: 100
- Plant response rating, Nutsedge, Yellow [9, 13]: 80
- Plant response rating, Nutsedge, Yellow [9, 26]: 40
- Plant response rating, Nutsedge, Yellow [9, 14]: 0
- Plant response rating, Nutsedge, Yellow [9, 16]: 80
- Plant response rating, Barnyardgrass [10, 17]: 40
- Plant response rating, Barnyardgrass [10, 18]: 0
- Plant response rating, Barnyardgrass [10, 19]: 40
- Plant response rating, Barnyardgrass [10, 20]: 40
- Plant response rating, Barnyardgrass [10, 21]: 30
- Plant response rating, Barnyardgrass [10, 22]: 0
- Plant response rating, Barnyardgrass [10, 23]: 35
- Plant response rating, Barnyardgrass [10, 24]: 65
- Plant response rating, Corn (corn (Zea mays); [17]): 0
- Plant response rating, Corn (corn (Zea mays); [18]): 0
- Plant response rating, Corn (corn (Zea mays); [19]): 0
- Plant response rating, Corn (corn (Zea mays); [20]): 5
- Plant response rating, Corn (corn (Zea mays); [21]): 0
- Plant response rating, Corn (corn (Zea mays); [22]): 0
- Plant response rating, Corn (corn (Zea mays); [23]): 0
- Plant response rating, Corn (corn (Zea mays); [24]): 0
- Plant response rating, Sandbur [11, 17]: 80
- Plant response rating, Sandbur [11, 18]: 40
- Plant response rating, Sandbur [11, 19]: 85
- Plant response rating, Sandbur [11, 25]: 65
- Plant response rating, Sandbur [11, 20]: 90
- Plant response rating, Sandbur [11, 21]: 70
- Plant response rating, Sandbur [11, 22]: 0
- Plant response rating, Sandbur [11, 24]: 70
- Plant response rating, Panicum, Fall [12, 17]: 65
- Plant response rating, Panicum, Fall [12, 18]: 80
- Plant response rating, Panicum, Fall [12, 19]: 70
- Plant response rating, Panicum, Fall [12, 25]: 90
- Plant response rating, Panicum, Fall [12, 20]: 60
- Plant response rating, Panicum, Fall [12, 21]: 50
- Plant response rating, Panicum, Fall [12, 22]: 70
- Plant response rating, Panicum, Fall [12, 24]: 95

SMILES: Cc1nn(C)c(=O)c(-c2ccc(F)c3ccccc23)c1O [Compound 41]
- Plant response rating, Goosegrass [1, 13]: 0
- Plant response rating, Goosegrass [1, 14]: 0
- Plant response rating, Goosegrass [1, 15]: 50
- Plant response rating, Goosegrass [1, 16]: 60
- Plant response rating, Lambsquarters [2, 13]: 100
- Plant response rating, Lambsquarters [2, 14]: 35
- Plant response rating, Lambsquarters [2, 15]: 100
- Plant response rating, Lambsquarters [2, 16]: 100
- Plant response rating, Crabgrass, Brazil [3, 17]: 20
- Plant response rating, Crabgrass, Brazil [3, 18]: 65
- Plant response rating, Crabgrass, Brazil [3, 19]: 30
- Plant response rating, Crabgrass, Brazil [3, 20]: 50
- Plant response rating, Crabgrass, Brazil [3, 21]: 10
- Plant response rating, Crabgrass, Brazil [3, 22]: 80
- Plant response rating, Crabgrass, Brazil [3, 23]: 100
- Plant response rating, Crabgrass, Brazil [3, 24]: 80
- Plant response rating, Beggarticks [4, 17]: 95
- Plant response rating, Beggarticks [4, 18]: 98
- Plant response rating, Beggarticks [4, 19]: 95
- Plant response rating, Beggarticks [4, 20]: 100
- Plant response rating, Beggarticks [4, 21]: 100
- Plant response rating, Beggarticks [4, 22]: 65
- Plant response rating, Beggarticks [4, 23]: 100
- Plant response rating, Beggarticks [4, 24]: 100
- Plant response rating, Waterhemp [5, 17]: 85
- Plant response rating, Waterhemp [5, 18]: 98
- Plant response rating, Waterhemp [5, 19]: 90
- Plant response rating, Waterhemp [5, 25]: 100
- Plant response rating, Waterhemp [5, 20]: 85
- Plant response rating, Waterhemp [5, 21]: 75
- Plant response rating, Waterhemp [5, 22]: 75
- Plant response rating, Waterhemp [5, 24]: 100
- Plant response rating, Field Bindweed [6, 17]: 90
- Plant response rating, Field Bindweed [6, 18]: 70
- Plant response rating, Field Bindweed [6, 19]: 85
- Plant response rating, Field Bindweed [6, 20]: 95
- Plant response rating, Field Bindweed [6, 21]: 80
- Plant response rating, Field Bindweed [6, 22]: 30
- Plant response rating, Field Bindweed [6, 23]: 75
- Plant response rating, Field Bindweed [6, 24]: 90
- Plant response rating, Surinam Grass [7, 13]: 75
- Plant response rating, Surinam Grass [7, 26]: 75
- Plant response rating, Surinam Grass [7, 14]: 10
- Plant response rating, Surinam Grass [7, 16]: 95
- Plant response rating, Ragweed [8, 18]: 70
- Plant response rating, Ragweed [8, 19]: 90
- Plant response rating, Ragweed [8, 25]: 90
- Plant response rating, Ragweed [8, 20]: 95
- Plant response rating, Ragweed [8, 21]: 80
- Plant response rating, Ragweed [8, 22]: 5
- Plant response rating, Ragweed [8, 24]: 100
- Plant response rating, Nutsedge, Yellow [9, 13]: 65
- Plant response rating, Nutsedge, Yellow [9, 26]: 75
- Plant response rating, Nutsedge, Yellow [9, 14]: 25
- Plant response rating, Nutsedge, Yellow [9, 16]: 85
- Plant response rating, Barnyardgrass [10, 17]: 35
- Plant response rating, Barnyardgrass [10, 18]: 25
- Plant response rating, Barnyardgrass [10, 19]: 50
- Plant response rating, Barnyardgrass [10, 20]: 60
- Plant response rating, Barnyardgrass [10, 21]: 20
- Plant response rating, Barnyardgrass [10, 22]: 10
- Plant response rating, Barnyardgrass [10, 23]: 40
- Plant response rating, Barnyardgrass [10, 24]: 65
- Plant response rating, Corn (corn (Zea mays); [17]): 0
- Plant response rating, Corn (corn (Zea mays); [18]): 0
- Plant response rating, Corn (corn (Zea mays); [19]): 0
- Plant response rating, Corn (corn (Zea mays); [20]): 5
- Plant response rating, Corn (corn (Zea mays); [21]): 0
- Plant response rating, Corn (corn (Zea mays); [22]): 0
- Plant response rating, Corn (corn (Zea mays); [23]): 0
- Plant response rating, Corn (corn (Zea mays); [24]): 25
- Plant response rating, Sandbur [11, 17]: 50
- Plant response rating, Sandbur [11, 18]: 70
- Plant response rating, Sandbur [11, 19]: 70
- Plant response rating, Sandbur [11, 25]: 75
- Plant response rating, Sandbur [11, 20]: 75
- Plant response rating, Sandbur [11, 21]: 60
- Plant response rating, Sandbur [11, 22]: 50
- Plant response rating, Sandbur [11, 24]: 80
- Plant response rating, Panicum, Fall [12, 17]: 25
- Plant response rating, Panicum, Fall [12, 18]: 90
- Plant response rating, Panicum, Fall [12, 19]: 30
- Plant response rating, Panicum, Fall [12, 25]: 95
- Plant response rating, Panicum, Fall [12, 20]: 50
- Plant response rating, Panicum, Fall [12, 21]: 15
- Plant response rating, Panicum, Fall [12, 22]: 80
- Plant response rating, Panicum, Fall [12, 24]: 98
